Experimental data taken from US8088791B2, “Antibacterial agents” (Biots Scientific Management Pty Ltd, priority 2006, dated 2012).
Converted amounts (≈) assume the structure as drawn.

Columns and labels:
[1] = test system: Staphylococcus aureus ATCC29213; test: Minimum Inhibitory Concentration (MIC) testing, broth microdilution, Staphylococcus aureus; type: cell-based; details: Staphylococcus aureus ATCC29213; for MIC: read-out: Staphylococcus aureus MICs Activity
Description: (§1) Compounds of this invention were tested for antimicrobial activity by susceptibility testing in liquid media. MICs for compounds against each strain were determined by a broth microdilution method according to the National Committee for Clinical Laboratory Standards (NCCLS) guidelines. (NCCLS. 2000. Methods for dilution antimicrobial susceptibility tests for bacteria that grow aerobically—fifth edition. Approved standard M7-A5. NCCLS, Wayne, Pa.)
(§2) Briefly, test compounds are prepared in 100 μl of 1.6% DMSO solution in multiwell plates. Several bacterial colonies from a freshly streaked plate are transferred to an appropriate rich broth, such as Mueller Hinton. The cell suspension is adjusted to an optical density of 0.09 and further diluted 1:100 with warm 2× broth. This cell suspension is dispensed into the wells containing compound solution so that the final volume is 200 μl. The plates are incubated overnight (16-20 hours) at 37° C. and turbidity is scored by eye and quantified spectrophotometrically. The MIC is defined as the lowest concentration inhibiting visible growth.
Some of the compounds of the Examples were also tested for activity against the pathogenic organism Staphylococcus aureus ATCC29213. […] Activities were again scored as ‘A’ if the MIC was ≦8 micrograms/ml, ‘B’ if the MIC was 16 to 64 micrograms/ml and ‘C’ if the MIC was greater than 64 micrograms/ml.

Bacillus subtilis 168CA = test: Minimum Inhibitory Concentration (MIC) testing, broth microdilution, Bacillus subtilis; type: cell-based; details: Bacillus subtilis 168CA; for MIC: read-out: Bacillus subtilis MICs Activity
Description: as §1, §2
Activities were scored as ‘A’ if the MIC was ≦8 micrograms/ml, ‘B’ if the MIC was 16 to 64 micrograms/ml and ‘C’ if the MIC was greater than 64 micrograms/ml.

| Structure (SMILES) | MIC [1] [µg/mL] | MIC (Bacillus subtilis 168CA) [µg/mL] | Staphylococcus aureus MICs Activity [1] | Bacillus subtilis MICs Activity (Bacillus subtilis 168CA) |
| --- | --- | --- | --- | --- |
| COc1cccc(COc2ccc(F)c(C(N)=O)c2F)c1 [Example 116, 2,6-Difluoro-3-(3-methoxybenzyloxy)-benzamide] | 16 to 64 (≈ 54.6 to 218 µM) | 16 to 64 (≈ 54.6 to 218 µM) | – | – |
| Cc1nc(COc2ccc(F)c(C(N)=O)c2F)cs1 [Example 190, 2,6-Difluoro-3-[(2-methyl-1,3-thiazol-4-yl)methoxy]benzenecarboxamide] | 16 to 64 (≈ 56.3 to 225 µM) | 16 to 64 (≈ 56.3 to 225 µM) | – | – |
| NC(=O)c1cccc(OCC(=O)OC2CCCCC2)c1 [Example 27, Cyclohexyl 2-[3-(aminocarbonyl)phenoxy]acetate] | > 64 | > 64 | – | – |
| NC(=O)c1c(F)ccc(OCc2nc(-c3ccccc3Cl)cs2)c1F [Example 99, 3-[4-(2-Chloro-phenyl)-thiazol-2-ylmethoxy]-2,6-difluoro-benzamide] | < 8 | < 8 | – | – |
| CCCCCC/C=C/COc1ccc(F)c(C(N)=O)c1 [Example 74, 2-Fluoro-5-[(E)-2-nonenyloxy]benzenecarboxamide] | < 8 | < 8 | – | – |
| NC(=O)c1c(F)ccc(OCc2cccc(-n3cccc3)c2)c1F [Example 161, 2,6-Difluoro-3-(3-pyrrol-1-yl-benzyloxy)-benzamide] | < 8 | < 8 | – | – |
| Cc1ccc(COc2ccc(F)c(C(N)=O)c2F)o1 [Example 185, 2,6-Difluoro-3-[(5-methyl-2-furyl)methoxy]benzenecarboxamide] | > 64 | > 64 | – | – |
| C#CCCCCCCCCCOc1ccc(Cl)c(C(N)=O)c1 [Example 69, 2-Chloro-5-(10-undecynyloxy)benzenecarboxamide] | < 8 | < 8 | – | – |
| CCCCC#CCCOc1cccc(C(N)=O)c1 [Example 59, 3-(3-Octynyloxy)benzenecarboxamide] | 16 to 64 (≈ 65.2 to 261 µM) | < 8 | – | – |
| COc1ccc(-c2nc(COc3ccc(F)c(C(N)=O)c3F)sc2-c2cccc(N)c2)cc1 [Example 284, 2,6-Difluoro-3-[5-(3-amino-phenyl)-4-(4-methoxy-phenyl)-thiazol-2-ylmethoxy]-benzamide] | < 8 | < 8 | – | – |
| COc1ccc(-c2nc(COc3ccc(F)c(C(N)=O)c3F)sc2-c2cccc(OC)c2)cc1 [Example 281, 2,6-Difluoro-3-[5-(3-methoxy-phenyl)-4-(4-methoxy-phenyl)-thiazol-2-ylmethoxy]-benzamide] | < 8 | < 8 | – | – |
| CC/C=C\CCCCCOc1ccc(F)c(C(N)=O)c1F [Example 86, 2,6-Difluoro-3-[(Z)-6-nonenyloxy]benzenecarboxamide] | < 8 | < 8 | – | – |
| CC(C)(C)c1ccc2oc(COc3ccc(F)c(C(N)=O)c3F)nc2c1 [Example 213, 3-[5-(tert-Butyl)-1,3-benzoxazol-2-yl]methoxy-2,6-difluorobenzenecarboxamide] | 16 to 64 (≈ 44.4 to 178 µM) | < 8 | – | – |
| Cc1cccc2ccc(COc3ccc(F)c(C(N)=O)c3F)nc12 [Example 146, 2,6-Difluoro-3-(8-methyl-quinolin-2-ylmethoxy)-benzamide] | 16 to 64 (≈ 48.7 to 195 µM) | < 8 | – | – |
| Cc1ccc2ccc(COc3ccc(F)c(C(N)=O)c3F)nc2c1 [Example 103, 3-(7-Methylquinolin-2-ylmethoxy)-2,6-difluoro-benzamide] | < 8 | < 8 | – | – |
| NC(=O)c1c(F)ccc(OCc2nc3cc([N+](=O)[O-])ccc3s2)c1F [Example 117, 2,6-Difluoro-3-(5-nitro-benzothiazol-2-ylmethoxy)-benzamide] | < 8 | < 8 | – | – |
| COc1ccc(-c2nc(COc3ccc(F)c(C(N)=O)c3F)sc2-c2ccncc2)cc1 [Example 127, 2,6-Difluoro-3-[4-(4-methoxy-phenyl)-5-pyridin-4-yl-thiazol-2-ylmethoxy]-benzamide] | < 8 | < 8 | – | – |
| CCCc1sc(COc2ccc(F)c(C(N)=O)c2F)nc1-c1ccc(OC)cc1 [Example 118, 2,6-Difluoro-3-[4-(4-methoxy-phenyl)-5-propyl-thiazol-2-ylmethoxy]-benzamide] | < 8 | < 8 | – | – |
| Cc1ccc2nc(COc3ccc(F)c(C(N)=O)c3F)sc2c1 [Example 229, 2,6-Difluoro-3-[(6-methyl-1,3-benzothiazol-2-yl)methoxy]benzenecarboxamide] | < 8 | < 8 | – | – |
| CCCCCC#CCCOc1cccc(C(N)=O)c1 [Example 51, 3-(3-Nonynyloxy)benzenecarboxamide] | 16 to 64 (≈ 61.7 to 247 µM) | < 8 | – | – |

| Structure (SMILES) | MIC [1] [µg/mL] | MIC (Bacillus subtilis 168CA) [µg/mL] | Staphylococcus aureus MICs Activity [1] | Bacillus subtilis MICs Activity (Bacillus subtilis 168CA) |
| --- | --- | --- | --- | --- |
| NC(=O)c1c(F)ccc(OCc2nc(-c3ccc(Cl)cc3)no2)c1Cl [Example 270, 2-Chloro-3-[3-(4-chloro-phenyl)-[1,2,4]oxadiazol-5-ylmethoxy]-6-fluoro-benzamide] | < 8 | < 8 | – | – |
| COc1ccc(-c2nc(COc3ccc(F)c(C(N)=O)c3F)sc2-c2cscn2)cc1 [Example 288, 2,6-Difluoro-3-[4′-(4-methoxy-phenyl)-[4,5′]bithiazolyl-2′-ylmethoxy]-benzamide] | < 8 | < 8 | – | – |
| CC(Oc1ccc(F)c(C(N)=O)c1F)c1nc2cc(Cl)ccc2s1 (centres unmarked) [Example 124, 3-[1-(5-Ohloro-benzothiazol-2-yl)-ethoxy]-2,6-difluoro-benzamide] | – | – | A (‘A’ if the MIC was ≦8 micrograms/ml) | A (‘A’ if the MIC was ≦8 micrograms/ml) |
| NC(=O)c1c(F)ccc(OCc2nc3cc(-c4ccccc4O)ccc3s2)c1F [Example 157, 2,6-Difluoro-3-[5-(2-hydroxy-phenyl)-benzothiazol-2-ylmethoxy]-benzamide] | < 8 | < 8 | – | – |
| NC(=O)c1cc(OCc2nc(-c3ccc(Cl)cc3)cs2)ccc1F [Example 272, 5-[4-(4-Chloro-phenyl)-thiazol-2-ylmethoxy]-2-fluoro-benzamide] | < 8 | < 8 | – | – |
| C=CCCCCCCOc1cccc(C(N)=O)c1 [Example 12, 3-(7-Octenyloxy)benzenecarboxamide] | < 8 | 16 to 64 (≈ 64.7 to 259 µM) | – | – |
| NC(=O)c1c(F)ccc(OCc2nc(Cc3ccc(Cl)cc3)no2)c1F [Example 265, 3-[3-(4-Chlorobenzyl)-1,2,4-oxadiazol-5-yl]methoxy-2,6-difluorobenzenecarboxamide] | 16 to 64 (≈ 42.1 to 169 µM) | < 8 | – | – |
| COc1ccc(-c2nc(COc3ccc(F)c(C(N)=O)c3F)sc2-c2cccc(O)c2)cc1 [Example 278, 2,6-Difluoro-3-[5-(3-hydroxy-phenyl)-4-(4-methoxy-phenyl)-thiazol-2-ylmethoxy]-benzamide] | < 8 | < 8 | – | – |
| CCCCCCOc1ccc(F)c(C(N)=O)c1F [Example 81, 2,6-Difluoro-3-(hexyloxy)benzenecarboxamide] | < 8 | < 8 | – | – |
| COc1ccc(-c2nc(COc3ccc(F)c(C(N)=O)c3F)sc2C2CC2)cc1 [Example 286, 3-[5-Cyclopropyl-4-(4-methoxy-phenyl)-thiazol-2-ylmethoxy]-2,6-difluoro-benzamide] | < 8 | < 8 | – | – |
| NC(=O)c1c(F)ccc(OCc2nc(-c3ccc(F)cc3)cs2)c1F [Example 318, 2,6-Difluoro-3-[4-(4-fluoro-phenyl)-thiazol-2-ylmethoxy]-benzamide] | < 8 | < 8 | – | – |
| Cn1ccnc1COc1ccc(F)c(C(N)=O)c1F [Example 194, 2,6-Difluoro-3-[(1-methyl-1H-imidazol-2-yl)methoxy]benzenecarboxamide] | > 64 | > 64 | – | – |
| Cc1ccccc1-c1nc(COc2ccc(F)c(C(N)=O)c2F)sc1Br [Example 130] | < 8 | < 8 | – | – |
| CCCCCCCCCOc1cccc(C(N)=O)c1 [Example 1, 3-Nonyloxy-benzenecarboxamide] | < 8 | < 8 | – | – |
| COc1ccc2sc(COc3ccc(F)c(C(N)=O)c3F)nc2c1 [Example 119, 2,6-Difluoro-3-(5-methoxy-benzothiazol-2-ylmethoxy)-benzamide] | < 8 | < 8 | – | – |
| NC(=O)c1c(F)ccc(OCc2cc(-c3ccccc3)on2)c1F [Example 163, 2,6-Difluoro-3-(5-phenyl-isoxazol-3-ylmethoxy)-benzamide] | < 8 | < 8 | – | – |
| N#Cc1ccc(-c2csc(COc3ccc(F)c(C(N)=O)c3F)n2)cc1 [Example 276, 3-[4-(4-Cyano-phenyl)-thiazol-2-ylmethoxy]-2,6-difluoro-benzamide] | < 8 | < 8 | – | – |
| CCCCOC(=O)COc1ccc(F)c(C(N)=O)c1F [Example 83, Butyl 2-[3-(aminocarbonyl)-2,4-difluorophenoxy]acetate] | 16 to 64 (≈ 55.7 to 223 µM) | < 8 | – | – |
| NC(=O)c1cccc(OCn2cccn2)c1 [Example 168, 3-(Pyrazol-1-ylmethoxy)-benzamide] | > 64 | > 64 | – | – |
| Cc1cccc(COc2ccc(F)c(C(N)=O)c2F)c1F [Example 128, 2,6-Difluoro-3-(2-fluoro-3-methyl-benzyloxy)-benzamide] | 16 to 64 (≈ 54.2 to 217 µM) | < 8 | – | – |
